Laboratory results reported in the OPERA property sets (Mansouri et al. 2018).

Q: For C#CCl, which boiling point is on record?
A: Its boiling point is -30 °C.

Q: What about the melting point of the same compound?
A: Its melting point is -126 °C.

Q: Which melting point does the source give for CCCCCCCCC(N)=O here?
A: The melting point was 99.5 °C.

Q: Which log10 vapour pressure (mmHg) does the source give for N#CC(Br)(Br)C(N)=O here?
A: The log10 vapour pressure (mmHg) was -3.05.

Q: What about the melting point of the same compound?
A: The melting point was 124 °C.

Q: And the ready biodegradability?
A: The ready biodegradability was “not readily biodegradable”.

Q: For O=C(O)CCC(=O)c1ccc2c(c1)-c1cccc3cccc-2c13, which melting point is on record?
A: The melting point was 208 °C.

Q: What does the source list for CNC(=O)Oc1cc(C)c(SC)c(C)c1?
A: log10 Henry constant (atm·m³/mol): -8.93; log10 Koc (L/kg): 2.32; log10 vapour pressure (mmHg): -6.57; melting point: 120 °C

Q: With CCOC(=O)C(=O)Cl as the compound, how does the boiling point read?
A: Its boiling point is 137 °C.

Q: What about the log10 vapour pressure (mmHg) of the same compound?
A: The log10 vapour pressure (mmHg) was 0.882.

Q: For NC(=O)c1cnccn1, which melting point is on record?
A: The melting point was 192 °C.

Q: What does the source list for CCCS?
A: boiling point: 67.8 °C; log10 Henry constant (atm·m³/mol): -2.39; log10 vapour pressure (mmHg): 2.19; melting point: -113 °C

Q: With C=CC(CC)c1ccccc1 (stereo not drawn) as the compound, how does the boiling point read?
A: The boiling point was 192 °C.

Q: For Brc1cc2ccccc2c2ccccc12, which melting point is on record?
A: Its melting point is 64.5 °C.

Q: With CCCCCCCCCCCCCCCc1cccc(O)c1O as the compound, how does the melting point read?
A: The melting point was 59.5 °C.

Q: With CCC(CC)C(=O)Cl as the compound, how does the boiling point read?
A: The boiling point was 140 °C.

Q: With CN(C)c1ccccc1C(=O)O as the compound, how does the melting point read?
A: Its melting point is 72 °C.

Q: Which boiling point does the source give for CCCCCCCCCCCCCCCCCCCCCCCCCCCCC here?
A: Its boiling point is 441 °C.

Q: And the log10 biodegradation half-life (days)?
A: Its log10 biodegradation half-life (days) is 2.

Q: What about the log10 vapour pressure (mmHg) of the same compound?
A: The log10 vapour pressure (mmHg) was -9.37.

Q: What about the melting point of the same compound?
A: The melting point was 63.7 °C.

Q: What about the ready biodegradability of the same compound?
A: Its ready biodegradability is “readily biodegradable”.

Q: With Clc1ccc(C/C(=C\CN2CCCC2)c2ccccc2)cc1 as the compound, how does the melting point read?
A: The melting point was 48.5 °C.

Q: For FC(F)(F)C(F)(F)C(F)(F)C(F)(F)C(F)(F)C(F)(F)C(F)(F)C(F)(F)I, which boiling point is on record?
A: Its boiling point is 160 °C.

Q: And the melting point?
A: Its melting point is 20.8 °C.

Q: With CCCCCCCCCCCC(=O)OCCOC(=O)CCCCCCCCCCC as the compound, how does the melting point read?
A: Its melting point is 56.6 °C.

Q: Which melting point does the source give for Nc1ncnc2c1ncn2[C@H]1CC[C@@H](CO)O1 here?
A: Its melting point is 185 °C.

Q: With CC(C)(C#N)C(C)(C)C#N as the compound, how does the melting point read?
A: The melting point was 170 °C.

Q: Which boiling point does the source give for c1ccc(Cc2ccccn2)cc1 here?
A: The boiling point was 277 °C.

Q: What about the melting point of the same compound?
A: The melting point was 12.5 °C.

Q: For Cc1c(Cl)cccc1Cl, which boiling point is on record?
A: The boiling point was 198 °C.

Q: And the melting point?
A: Its melting point is 25.8 °C.

Q: And the ready biodegradability?
A: The ready biodegradability was “not readily biodegradable”.

Q: Which melting point does the source give for O=CC=Cc1ccc([N+](=O)[O-])cc1 here?
A: The melting point was 142 °C.

Q: With Nc1ccc(OCCCCCN2C(=O)c3ccccc3C2=O)cc1 as the compound, how does the melting point read?
A: Its melting point is 114 °C.

Q: Which results are given for C=CC(C)=O?
A: boiling point: 81.4 °C; log10 Henry constant (atm·m³/mol): -4.33; ready biodegradability: not readily biodegradable

Q: With CCCCC(C)(C)C(C)C as the compound, how does the boiling point read?
A: The boiling point was 160 °C.

Q: Which melting point does the source give for CCc1ccc(C(=O)O)cc1 here?
A: The melting point was 112 °C.

Q: What does the source list for Cc1ccc(C)c([N+](=O)[O-])c1?
A: boiling point: 240 °C; melting point: -25 °C

Q: Which melting point does the source give for CCOC(=O)C(NC=O)C(=O)OCC here?
A: The melting point was 48.5 °C.

Q: For CCCCCCCCOC(=O)CC, which boiling point is on record?
A: Its boiling point is 228 °C.

Q: And the melting point?
A: The melting point was -42.6 °C.

Q: What does the source list for C=C(C)C=CC(=C)C?
A: boiling point: 146 °C; melting point: -9 °C

Q: With Nc1ccc2ccccc2c1N=Nc1ccccc1 as the compound, how does the melting point read?
A: The melting point was 103 °C.

Q: With CC(=O)c1c(F)c(F)c(F)c(F)c1F as the compound, how does the melting point read?
A: Its melting point is 130 °C.

Q: With CCCCCCCCCCC1CCCC1 as the compound, how does the boiling point read?
A: The boiling point was 279 °C.

Q: And the melting point?
A: The melting point was -22 °C.

Q: Which melting point does the source give for CCn1ccc(NS(=O)(=O)c2ccc(N)cc2)nc1=O here?
A: Its melting point is 166 °C.

Q: With S=c1sc2nc3ccccc3nc2s1 as the compound, how does the melting point read?
A: The melting point was 180 °C.

Q: Which log10 vapour pressure (mmHg) does the source give for COP(=S)(OC)SCc1nc(N)nc(N)n1 here?
A: Its log10 vapour pressure (mmHg) is -6.01.

Q: And the melting point?
A: The melting point was 165 °C.

Q: What about the ready biodegradability of the same compound?
A: The ready biodegradability was “not readily biodegradable”.

Q: Which results are given for O=C(C(F)(F)F)C(F)(F)Cl?
A: boiling point: 8 °C; log10 vapour pressure (mmHg): 3.15; melting point: -133 °C

Q: With C=COCCCCCC as the compound, how does the boiling point read?
A: The boiling point was 143 °C.

Q: Which melting point does the source give for C1CCSSC1 here?
A: The melting point was 32.5 °C.

Q: For NCCc1ccccc1, which boiling point is on record?
A: Its boiling point is 198 °C.

Q: And the melting point?
A: The melting point was -60 °C.

Q: What about the ready biodegradability of the same compound?
A: Its ready biodegradability is “readily biodegradable”.

Q: For CC(=O)OC(C)OC(C)=O, which boiling point is on record?
A: Its boiling point is 169 °C.

Q: What about the melting point of the same compound?
A: The melting point was 18.9 °C.

Q: What does the source list for CCCC#N?
A: boiling point: 118 °C; log10 Henry constant (atm·m³/mol): -4.28; log10 Koa: 3.12; log10 vapour pressure (mmHg): 1.29; melting point: -112 °C

Q: Which log10 Koc (L/kg) does the source give for O=C(O)c1cc([N+](=O)[O-])ccc1[N+](=O)[O-] here?
A: The log10 Koc (L/kg) was 2.3.

Q: For COC(=O)c1cccc(C(=O)OC)c1, which boiling point is on record?
A: The boiling point was 282 °C.

Q: And the melting point?
A: The melting point was 67.5 °C.

Q: And the ready biodegradability?
A: The ready biodegradability was “readily biodegradable”.

Q: For Cc1cc[nH]c1, which boiling point is on record?
A: Its boiling point is 143 °C.

Q: And the melting point?
A: The melting point was -48.4 °C.

Q: Which boiling point does the source give for Brc1ccc(Br)c2ccccc12 here?
A: The boiling point was 310 °C.

Q: What about the melting point of the same compound?
A: The melting point was 83 °C.

Q: What does the source list for O=C(Cl)c1ccccc1Br?
A: boiling point: 243 °C; melting point: 11 °C

Q: Which melting point does the source give for OCc1ccc2ccccc2c1 here?
A: Its melting point is 81.3 °C.

Q: Which melting point does the source give for O=C1C[C@@H]2OCC=C3CN4CC[C@]56c7ccccc7N1[C@H]5[C@H]2[C@H]3C[C@H]46 here?
A: The melting point was 287 °C.

Q: Which results are given for c1ccc2c(c1)ccc1ncccc12?
A: boiling point: 352 °C; log10 Koc (L/kg): 4.64; log10 vapour pressure (mmHg): -4.25; melting point: 94 °C

Q: For c1ccc2c(c1)CCC2, which boiling point is on record?
A: The boiling point was 178 °C.

Q: What about the log10 Henry constant (atm·m³/mol) of the same compound?
A: The log10 Henry constant (atm·m³/mol) was -3.7.

Q: What about the log10 biodegradation half-life (days) of the same compound?
A: Its log10 biodegradation half-life (days) is 0.778.

Q: And the log10 vapour pressure (mmHg)?
A: Its log10 vapour pressure (mmHg) is 0.166.

Q: What about the melting point of the same compound?
A: The melting point was -51.4 °C.

Q: For CC(=O)Nc1ccc(Br)cc1, which log10 Koc (L/kg) is on record?
A: The log10 Koc (L/kg) was 1.95.

Q: For COc1c(OC)c2occc2c2oc(=O)ccc12, which melting point is on record?
A: The melting point was 119 °C.

Q: For CCOC(=O)NC(C)(C)Cc1ccc(Cl)cc1, which melting point is on record?
A: The melting point was 52.8 °C.

Q: For C/C(=N/Nc1nc(C)cc(C)n1)c1ccccc1C, which log10 vapour pressure (mmHg) is on record?
A: Its log10 vapour pressure (mmHg) is -7.51.

Q: And the melting point?
A: The melting point was 176 °C.

Q: With CCC(=O)C1(c2cccc(O)c2)CCN(C)CC1 as the compound, how does the melting point read?
A: Its melting point is 156 °C.

Q: Which melting point does the source give for CC(=O)S[C@H]1CC(=O)C=C2C[C@@H](SC(C)=O)[C@@H]3[C@H](CC[C@@]4(C)[C@H]3CC[C@]4(C)O)[C@]21C here?
A: Its melting point is 206 °C.

Q: For O=C(O)CCCCCC1NC(=O)CS1 (stereo not drawn), which melting point is on record?
A: The melting point was 140 °C.

Q: For Cc1ccc(C(=O)O)cc1, which log10 Koc (L/kg) is on record?
A: The log10 Koc (L/kg) was 1.77.

Q: And the log10 vapour pressure (mmHg)?
A: Its log10 vapour pressure (mmHg) is -4.29.

Q: And the melting point?
A: The melting point was 180 °C.

Q: What about the ready biodegradability of the same compound?
A: The ready biodegradability was “readily biodegradable”.

Q: What does the source list for Oc1ccc(/N=N/c2ccccc2)cc1?
A: log10 vapour pressure (mmHg): -6.64; melting point: 155 °C

Q: Which melting point does the source give for CNC(=O)N(C)c1nnc(C(F)(F)F)s1 here?
A: The melting point was 136 °C.
